10 compounds from article PMC6684654 (Nature Communications, 2019) can be followed below.

The structures appear in SMILES notation. Values after ≈ are worked out from the molar mass of the structure shown.

What all share (test): Antibiotic susceptibility (MIC), automated identification system
Format in all cases: cell-based

Assay [1] relates to NDM-1 K. pneumoniae XJ155018. As to conditions: Supplementary Table 2; for MIC: Klebsiella pneumoniae. An excerpt:
(§1) Clinical isolate strains were identified and screened by the Phoenix 100 automated bacterial identification system to rapidly detect antimicrobial resistance. Total DNA was extracted by the TIANamp Bacteria DNA Kit according to the manufacturer’s protocol. The presence of blaNDM-1 was confirmed using a diagnostic kit for NDM-1 (Puruikang Bio Inc., Shenzhen, China) based on fluorescent quantitative polymerase chain reaction assay. According to the instruction, Ct values of less than 37 were considered positive.

In the next assay the test system is K. pneumoniae ATCC13883. As to conditions: Supplementary Table 2; for MIC: Klebsiella pneumoniae, ATCC13883.
Source text: as §1

For assay [2], the system named is NDM-1 K. pneumoniae XJ155020. As to conditions: Supplementary Table 2; for MIC: Klebsiella pneumoniae.
Source text: as §1

A further assay concerns NDM-1 E. coli XJ141026. As to conditions: Supplementary Table 1; for MIC: Escherichia coli.
Source text: as §1

A further assay concerns E. coli ATCC25922. As to conditions: Supplementary Table 1; for MIC: Escherichia coli, ATCC25922.
Source text: as §1

Another assay has as its system NDM-1 E. coli XJ141015. As to conditions: Supplementary Table 1; for MIC: Escherichia coli.
Source text: as §1

The subject of assay [3] is NDM-1 K. pneumoniae XJ155017. As to conditions: Supplementary Table 2; for MIC: Klebsiella pneumoniae.
Source text: as §1

Assay [4] has as its system NDM-1 K. pneumoniae XJ155019. As to conditions: Supplementary Table 2; for MIC: Klebsiella pneumoniae.
Source text: as §1

A further assay concerns NDM-1 E. coli XJ141047. As to conditions: Supplementary Table 1; for MIC: Escherichia coli.
Source text: as §1

As to `CC1(C)S[C@@H]2[C@H](NC(=O)[C@H](N)c3ccccc3)C(=O)N2[C@H]1C(=O)O` [Ampicillin], the MIC – broadly, the least concentration at which growth counts as inhibited – in assay [1] is over 16 µg/mL; against K. pneumoniae ATCC13883, 16 µg/mL (≈ 45.8 µM); in assay [2], over 16 µg/mL; in the assay with NDM-1 E. coli XJ141026, over 16 µg/mL; with E. coli ATCC25922 it was at most 4 µg/mL; with NDM-1 E. coli XJ141015 it was over 16 µg/mL. Further, the MIC (in assay [3]; in assay [4]; against NDM-1 E. coli XJ141047) was over 16 µg/mL each time. In addition, the “susceptibility class (MIC)” value in assay [1] is on record as “R”; with K. pneumoniae ATCC13883, “R”; in [2] it was “R”; with NDM-1 E. coli XJ141026 it was “R”; in the assay on E. coli ATCC25922 it was “S”; in the assay with NDM-1 E. coli XJ141015 it was “R”. For the same compound, the “susceptibility class (MIC)” value (in assay [3]; in assay [4]; in the assay with NDM-1 E. coli XJ141047) was “R” throughout.

Turning to `COc1c(N2C[C@@H]3CCCN[C@@H]3C2)c(F)cc2c(=O)c(C(=O)O)cn(C3CC3)c12` [Moxifloxacin], the MIC is over 4 µg/mL in assay [1]; at most 1 µg/mL in the assay on K. pneumoniae ATCC13883; over 4 µg/mL in assay [2]; over 4 µg/mL against NDM-1 E. coli XJ141026; at most 1 µg/mL in the assay on E. coli ATCC25922; over 4 µg/mL against NDM-1 E. coli XJ141015. Also, the results for the MIC (in assay [3]; in [4]; in the assay with NDM-1 E. coli XJ141047) were over 4 µg/mL, over 4 µg/mL and at most 1 µg/mL, respectively. The “susceptibility class (MIC)” value is given as “R” in assay [1]; “S” in the assay with K. pneumoniae ATCC13883; “R” in assay [2]; “R” in the assay on NDM-1 E. coli XJ141026; “S” in the assay on E. coli ATCC25922; “R” in the assay with NDM-1 E. coli XJ141015. In addition, the “susceptibility class (MIC)” value in assay [3] is recorded as “R”; in assay [4] it was “R”; with NDM-1 E. coli XJ141047, “S”.

As to `C[C@H]1[C@H](NC(=O)/C(=N\OC(C)(C)C(=O)O)c2csc(N)n2)C(=O)N1S(=O)(=O)O` [Aztreonam], the MIC in assay [1] is over 16 µg/mL; against K. pneumoniae ATCC13883, at most 2 µg/mL; in [2], over 16 µg/mL; in the assay with NDM-1 E. coli XJ141026, over 16 µg/mL; in the assay on E. coli ATCC25922, at most 2 µg/mL; against NDM-1 E. coli XJ141015, over 16 µg/mL. Also, the minimal inhibitory concentration (MIC) (in assay [3]; in assay [4]; in the assay with NDM-1 E. coli XJ141047) was over 16 µg/mL throughout. Further, the “susceptibility class (MIC)” value in assay [1] is reported as “R”; in the assay with K. pneumoniae ATCC13883 it was “S”; in [2], “R”; in the assay on NDM-1 E. coli XJ141026, “R”; with E. coli ATCC25922, “S”; with NDM-1 E. coli XJ141015, “R”. The “susceptibility class (MIC)” value (in assay [3]; in assay [4]; with NDM-1 E. coli XJ141047) was “R” each time.

Consider `CN(C)[C@@H]1C(O)=C(C(N)=O)C(=O)[C@@]2(O)C(O)=C3C(=O)c4c(O)cccc4[C@@](C)(O)[C@H]3C[C@@H]12` [Tetracycline], for which the MIC in [1] was over 8 µg/mL; against K. pneumoniae ATCC13883, at most 2 µg/mL; in assay [2], over 8 µg/mL; in the assay on NDM-1 E. coli XJ141026, over 8 µg/mL; against E. coli ATCC25922, at most 2 µg/mL; against NDM-1 E. coli XJ141015, at most 2 µg/mL. Besides, the figures for the minimum inhibitory concentration (MIC) (in assay [3]; in assay [4]; in the assay with NDM-1 E. coli XJ141047) were 4 µg/mL (≈ 9 µM), over 8 µg/mL and at most 2 µg/mL, respectively. Further, the “susceptibility class (MIC)” value in assay [1] is “R”; in the assay with K. pneumoniae ATCC13883 it was “S”; in assay [2], “R”; with NDM-1 E. coli XJ141026 it was “R”; with E. coli ATCC25922 it was “S”; in the assay on NDM-1 E. coli XJ141015 it was “S”. Besides, the “susceptibility class (MIC)” value in [3] is given as “S”; in [4], “R”; with NDM-1 E. coli XJ141047, “S”.

As for `NCC[C@H](O)C(=O)N[C@@H]1C[C@H](N)[C@@H](O[C@H]2O[C@H](CN)[C@@H](O)[C@H](O)[C@H]2O)[C@H](O)[C@H]1O[C@H]1O[C@H](CO)[C@@H](O)[C@H](N)[C@H]1O` [Amikacin], the MIC (in assay [1]; against K. pneumoniae ATCC13883; in assay [2]; against NDM-1 E. coli XJ141026; against E. coli ATCC25922; in the assay with NDM-1 E. coli XJ141015) was at most 8 µg/mL throughout. The MIC (in assay [3]; in assay [4]; in the assay on NDM-1 E. coli XJ141047) was at most 8 µg/mL each time. Further, the “susceptibility class (MIC)” value (in [1]; with K. pneumoniae ATCC13883; in [2]; with NDM-1 E. coli XJ141026; in the assay on E. coli ATCC25922; in the assay on NDM-1 E. coli XJ141015) was “S” each time. For the same compound, the “susceptibility class (MIC)” value (in [3]; in assay [4]; in the assay on NDM-1 E. coli XJ141047) was “S” in each case.

Turning to `C[C@H]1COc2c(N3CCN(C)CC3)c(F)cc3c(=O)c(C(=O)O)cn1c23` [Levofloxacin], the MIC in the assay with K. pneumoniae ATCC13883 is at most 1 µg/mL; in assay [2], over 8 µg/mL; against NDM-1 E. coli XJ141026, over 8 µg/mL; with E. coli ATCC25922, at most 1 µg/mL; with NDM-1 E. coli XJ141015, over 8 µg/mL; in assay [4], over 8 µg/mL. The same compound showed an MIC in the assay with NDM-1 E. coli XJ141047 of at most 1 µg/mL. In addition, the “susceptibility class (MIC)” value in the assay with K. pneumoniae ATCC13883 is recorded as “S”; in [2], “R”; in the assay with NDM-1 E. coli XJ141026, “R”; in the assay on E. coli ATCC25922, “S”; in the assay on NDM-1 E. coli XJ141015 it was “R”; in [4] it was “R”. In addition, the “susceptibility class (MIC)” value in the assay on NDM-1 E. coli XJ141047 was “S”.

In the case of `CNC(C)C1CCC(N)C(OC2C(N)CC(N)C(OC3OCC(C)(O)C(NC)C3O)C2O)O1` (centres unmarked) [Gentamicin], the minimal inhibitory concentration (MIC) in assay [1] was at most 2 µg/mL; in the assay with K. pneumoniae ATCC13883, at most 2 µg/mL; in assay [2], at most 2 µg/mL; in the assay with NDM-1 E. coli XJ141026, over 8 µg/mL; with E. coli ATCC25922, at most 2 µg/mL; in the assay with NDM-1 E. coli XJ141015, at most 2 µg/mL. In addition, the MIC is at most 2 µg/mL in assay [3], at most 2 µg/mL in [4] and over 8 µg/mL in the assay with NDM-1 E. coli XJ141047. Besides, the “susceptibility class (MIC)” value in assay [1] is given as “S”; in the assay on K. pneumoniae ATCC13883, “S”; in [2], “S”; in the assay with NDM-1 E. coli XJ141026 it was “R”; with E. coli ATCC25922 it was “S”; with NDM-1 E. coli XJ141015, “S”. The “susceptibility class (MIC)” value in assay [3] is recorded as “S”; in assay [4], “S”; with NDM-1 E. coli XJ141047 it was “R”.

On to `CO/N=C(\C(=O)N[C@@H]1C(=O)N2C(C(=O)[O-])=C(C[N+]3(C)CCCC3)CS[C@H]12)c1csc(N)n1` [Cefepime], for which the minimal inhibitory concentration (MIC) in [1] was over 16 µg/mL; with K. pneumoniae ATCC13883, at most 2 µg/mL; in assay [2], over 16 µg/mL; against NDM-1 E. coli XJ141026, over 16 µg/mL; in the assay with E. coli ATCC25922, at most 2 µg/mL; in the assay with NDM-1 E. coli XJ141015 it was over 16 µg/mL. Moreover, the MIC (in [3]; in assay [4]; against NDM-1 E. coli XJ141047) was over 16 µg/mL each time. The “susceptibility class (MIC)” value in assay [1] is “R”; with K. pneumoniae ATCC13883, “S”; in [2] it was “R”; in the assay with NDM-1 E. coli XJ141026, “R”; in the assay on E. coli ATCC25922, “S”; with NDM-1 E. coli XJ141015, “R”. Also, the “susceptibility class (MIC)” value (in [3]; in [4]; in the assay with NDM-1 E. coli XJ141047) was “R” throughout.

As for `Cc1nnc(SCC2=C(C(=O)O)N3C(=O)[C@@H](NC(=O)Cn4cnnn4)[C@H]3SC2)s1` [Cefazolin], the MIC in assay [1] was over 16 µg/mL; in the assay on K. pneumoniae ATCC13883, at most 4 µg/mL; in assay [2], over 16 µg/mL; against NDM-1 E. coli XJ141026, over 16 µg/mL; in the assay on E. coli ATCC25922 it was at most 4 µg/mL; against NDM-1 E. coli XJ141015 it was over 16 µg/mL. Further, the MIC (in [3]; in assay [4]; in the assay with NDM-1 E. coli XJ141047) was over 16 µg/mL throughout. Further, the “susceptibility class (MIC)” value in [1] is recorded as “R”; with K. pneumoniae ATCC13883, “S”; in assay [2] it was “R”; in the assay with NDM-1 E. coli XJ141026, “R”; in the assay on E. coli ATCC25922 it was “S”; in the assay on NDM-1 E. coli XJ141015, “R”. In addition, the “susceptibility class (MIC)” value (in assay [3]; in assay [4]; in the assay with NDM-1 E. coli XJ141047) was “R” throughout.

Consider `O=C(N[C@H](CO)[C@H](O)c1ccc([N+](=O)[O-])cc1)C(Cl)Cl` [Chloramphenicol], for which the minimum inhibitory concentration (MIC) in assay [1] was over 16 µg/mL; against K. pneumoniae ATCC13883, at most 4 µg/mL; in [2], over 16 µg/mL; in the assay on NDM-1 E. coli XJ141026, at most 4 µg/mL; in the assay with E. coli ATCC25922 it was at most 4 µg/mL; against NDM-1 E. coli XJ141015, over 16 µg/mL. Also, the MIC in assay [3] was over 16 µg/mL; in assay [4], over 16 µg/mL; against NDM-1 E. coli XJ141047, at most 4 µg/mL. Further, the “susceptibility class (MIC)” value in [1] was “R”; with K. pneumoniae ATCC13883 it was “S”; in assay [2], “R”; in the assay with NDM-1 E. coli XJ141026 it was “S”; in the assay on E. coli ATCC25922, “S”; with NDM-1 E. coli XJ141015, “R”. The “susceptibility class (MIC)” value in assay [3] was “R”; in assay [4], “R”; in the assay on NDM-1 E. coli XJ141047, “S”.
